Source: paper PMC10786919, “Design-rules for stapled peptides with in vivo activity and their application to Mdm2/X antagonists” (Nature Communications, 2024)
Values after ≈ are worked out from the molar mass of the structure shown. Where two headings read alike, the source gives them in different places. Positions of bridges follow the written chain, without caps; N, C: chain ends. Non-standard residues stand in square brackets, D forms with d. Residues, ends and D or L forms follow the SMILES beside them. Lys(N3) = [N-]=[N+]=NCCCC[C@H](N)C(=O)O; R8 = C=CCCCCCC[C@@](C)(N)C(=O)O; Cba = N[C@@H](CC1CCC1)C(=O)O; S5 = C=CCCC[C@](C)(N)C(=O)O; βAla = NCCC(=O)O

Assays:
[1] = Experimental LogD (partition coefficient); details: for logD: not stated, Partition Coeff LogD
[2] = in vitro; details: Nanoclick permeability assay EC50
Summary of the method: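 Azido-peptide permeability was read as loss of NanoBRET signal (donor 450 nm, acceptor 610 nm) after adding NanoBret618-azide at 10 μM final.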

[3] = test system: Ca Ski cell line; details: 72 h
Summary of the method: (§1)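 Compound dilution series (10 points, 3-fold, 10 mM top stock in DMSO) tested on overnight-plated Ca Ski cells in RPMI1640/10% FBS and on blasticidin-selected p53RE-bla HCT-116 cells in McCoy's 5A; read-out was CellTiter-Glo 2.0 luminescence after room-temperature equilibration.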

[4] = test system: CellSensor p53RE-bla HCT-116 Cell Line; details: 72 h
Summary of the method: as §1

[5] = Lactate dehydrogenase (LDH) release assay; assay type: cell-based
Summary of the method: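 Membrane damage measured as lactate dehydrogenase release (CytoTox-ONE kit) from p53-responsive β-lactamase reporter HCT116 cells plated at 8000 per well. Final DMSO 0.5%; geometric mean reported from a minimum of three biological replicates.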

[6] = Solubility assay (kinetic solubility, PBS pH 7); assay type: physicochemical; details: for solubility kinetic: pH 7, aqueous buffer, kinetic from dmso stock, read-out: Solubility
Summary of the method: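 Reference standards were made by diluting the 10 mM stock to 100 µM in acetonitrile:methanol:DMSO 10:80:10. Solubility in µM was calculated as the sample peak area divided by the standard peak area, multiplied by the standard concentration.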

[7] = physchem
[8] = physchem; remark: listed apart in the source

Structure (SMILES) | logD [1] | cell entry EC50 [2] [µM] | EC50 [3] [µM] | EC50 [4] [µM] | EC50 ([5]; LDH: Cytotoxicity assay: EC50) [µM] | solubility kinetic ([6]; pH 7, PBS) [µM] | EPSA [7] [A^2] | EPSA [8] [A^2] | EC50 ([5]; LDH: Cytotoxicity assay EC50) [µM] | Solubility ([6]; pH 7, PBS) | EC50 ([5]; LDH Cytotoxicity assay EC50) [µM] | Solubility [6] | Partition Coeff LogD [1] | Partition Coeff LogD ([1]; experimental)
CC(=O)N[C@@H](CCCCN=[N+]=[N-])C(=O)NCCC(=O)N[C@@H](Cc1ccc(O)cc1)C(=O)N[C@H](C(=O)N[C@@H](Cc1ccccc1)C(=O)N[C@]1(C)CCCCCCC=CCCC[C@@](C)(C(=O)N[C@@H](CO)C(=O)N[C@@H](C)C(=O)N[C@@H](C)C(N)=O)NC(=O)[C@H](CC2CCC2)NC(=O)[C@H](CCC(N)=O)NC(=O)[C@H](Cc2ccc(O)cc2)NC(=O)[C@H](Cc2c[nH]c3ccccc23)NC(=O)[C@H](Cc2ccc(O)cc2)NC(=O)[C@H](Cc2ccc(O)cc2)NC1=O)[C@@H](C)O [MP-694] (Ac-[Lys(N3)][βAla]YTF[R8]YYWYQ[Cba][S5]SAA-NH2; staple 6-13) | 3.22 | 0.453 | > 49.8 | 3.03 | > 50.6 | 9 (≈ 19.3 µg/mL) | 227 |  |  |  |  |  |  | 
CC(=O)N[C@@H](CCCCN=[N+]=[N-])C(=O)NCCC(=O)N[C@@H](CC(C)C)C(=O)N[C@@H](CCC(=O)O)C(=O)N[C@@H](Cc1ccccc1)C(=O)N[C@]1(C)CCCCCCC=CCCC[C@@](C)(C(=O)N[C@@H](CO)C(=O)N[C@@H](C)C(=O)N[C@@H](C)C(N)=O)NC(=O)[C@H](CC2CCC2)NC(=O)[C@H](CCC(N)=O)NC(=O)[C@H](C)NC(=O)[C@H](Cc2c[nH]c3ccccc23)NC(=O)[C@H](Cc2ccc(O)cc2)NC(=O)[C@H](CCC(=O)O)NC1=O [MP-179] | 2.5 | 0.173 | > 49.8 | 13.6 |  | 102 (≈ 205 µg/mL) |  | 243 | > 50 |  |  |  |  | 
CC(=O)N[C@@H](CCCCN=[N+]=[N-])C(=O)NCCC(=O)N[C@@H](CC(C)C)C(=O)N[C@@H](CCCNC(=N)N)C(=O)N[C@@H](Cc1ccccc1)C(=O)N[C@]1(C)CCCCCCC=CCCC[C@@](C)(C(=O)N[C@@H](CO)C(=O)N[C@@H](C)C(=O)N[C@@H](C)C(N)=O)NC(=O)[C@H](CC2CCC2)NC(=O)[C@H](CCC(N)=O)NC(=O)[C@H](C)NC(=O)[C@H](Cc2c[nH]c3ccccc23)NC(=O)[C@H](Cc2ccc(O)cc2)NC(=O)[C@H](CCC(=O)O)NC1=O [MP-553] (Ac-[Lys(N3)][βAla]LRF[R8]EYWAQ[Cba][S5]SAA-NH2; staple 6-13) | 2.86 | 0.174 | > 49.8 | 6.78 |  |  |  | 232 | > 50 | Poorly Behaved |  |  |  | 
CC(=O)N[C@@H](CCCCN=[N+]=[N-])C(=O)NCCC(=O)N[C@@H](CC(C)C)C(=O)N[C@H](C(=O)N[C@@H](Cc1ccccc1)C(=O)N[C@]1(C)CCCCCCC=CCCC[C@@](C)(C(=O)N[C@@H](Cc2c[nH]c3ccccc23)C(=O)N[C@@H](C)C(=O)N[C@@H](C)C(N)=O)NC(=O)[C@H](CC2CCC2)NC(=O)[C@H](CCC(N)=O)NC(=O)[C@H](C)NC(=O)[C@H](Cc2c[nH]c3ccccc23)NC(=O)[C@H](Cc2ccc(O)cc2)NC(=O)[C@H](CCC(=O)O)NC1=O)[C@@H](C)O [MP-188] (Ac-[Lys(N3)][βAla]LTF[R8]EYWAQ[Cba][S5]WAA-NH2; staple 6-13) | 3.33 | 0.374 | 30.4 | 4.79 |  | 50 (≈ 103 µg/mL) |  | 249 | > 50 |  |  |  |  | 
CC(=O)N[C@@H](CCCCN=[N+]=[N-])C(=O)NCCC(=O)N[C@@H](CC(C)C)C(=O)N[C@H](C(=O)N[C@@H](Cc1ccccc1)C(=O)N[C@]1(C)CCCCCCC=CCCC[C@@](C)(C(=O)N[C@@H](CO)C(=O)N[C@@H](C)C(=O)N[C@@H](C)C(N)=O)NC(=O)[C@H](CC2CCC2)NC(=O)[C@H](CCC(N)=O)NC(=O)[C@H](CCCNC(=N)N)NC(=O)[C@H](Cc2c[nH]c3ccccc23)NC(=O)[C@H](Cc2ccc(O)cc2)NC(=O)[C@H](CCC(=O)O)NC1=O)[C@@H](C)O [MP-555] (Ac-[Lys(N3)][βAla]LTF[R8]EYWRQ[Cba][S5]SAA-NH2; staple 6-13) | 2.92 | 0.249 | > 49.8 | 6.25 |  | 2 (≈ 4.11 µg/mL) |  | 220 | > 50 |  |  |  |  | 
CC(=O)N[C@@H](CCCCN=[N+]=[N-])C(=O)NCCC(=O)N[C@@H](CC(C)C)C(=O)N[C@H](C(=O)N[C@@H](Cc1ccccc1)C(=O)N[C@]1(C)CCCCCCC=CCCC[C@@](C)(C(=O)N[C@@H](CO)C(=O)N[C@@H](C)C(=O)N[C@@H](C)C(N)=O)NC(=O)[C@H](CC2CCC2)NC(=O)[C@H](CCC(N)=O)NC(=O)[C@H](C)NC(=O)[C@H](Cc2c[nH]c3ccccc23)NC(=O)[C@H](Cc2ccc(O)cc2)NC(=O)[C@H](CCCNC(=N)N)NC1=O)[C@@H](C)O [MP-554] (Ac-[Lys(N3)][βAla]LTF[R8]RYWAQ[Cba][S5]SAA-NH2; staple 6-13) | 3.28 | 0.586 | 11.4 | 5.79 |  |  |  | 215 | 30.4 | Poorly Behaved |  |  |  | 
CC(=O)N[C@@H](CCCCN=[N+]=[N-])C(=O)N[C@@H](CCCCN)C(=O)N[C@@H](CCCCN)C(=O)NCCC(=O)N[C@@H](C)C(=O)N[C@@H](C)C(=O)N[C@@H](Cc1ccccc1)C(=O)N[C@]1(C)CCCCCCC=CCCC[C@@](C)(C(=O)N[C@@H](C)C(=O)N[C@@H](C)C(=O)N[C@@H](C)C(N)=O)NC(=O)[C@H](CC2CCC2)NC(=O)[C@H](C)NC(=O)[C@H](C)NC(=O)[C@H](Cc2c[nH]c3ccccc23)NC(=O)[C@H](Cc2ccc(O)cc2)NC(=O)[C@H](C)NC1=O [MP-8967] (Ac-[Lys(N3)]KK[βAla]AAF[R8]AYWAA[Cba][S5]AAA-NH2; staple 8-15) | 2.75 | 0.575 | 13.5 | 12.1 |  |  |  | 223 | 16.8 | Poorly Behaved | 16.8 | P.B. |  | 
CC(=O)N[C@@H](CCCCN=[N+]=[N-])C(=O)NCCC(=O)N[C@@H](CC(C)C)C(=O)N[C@H](C(=O)N[C@@H](Cc1ccccc1)C(=O)N[C@]1(C)CCCCCCC=CCCC[C@@](C)(C(=O)N[C@@H](CCC(=O)O)C(=O)N[C@@H](C)C(=O)N[C@@H](C)C(N)=O)NC(=O)[C@H](CC2CCC2)NC(=O)[C@H](CCC(N)=O)NC(=O)[C@H](C)NC(=O)[C@H](Cc2c[nH]c3ccccc23)NC(=O)[C@H](Cc2ccc(O)cc2)NC(=O)[C@H](CCC(=O)O)NC1=O)[C@@H](C)O [MP-182] | 2.5 | 0.223 | > 49.8 | 1.31 |  | 163 (≈ 328 µg/mL) |  | 251 | > 50 |  |  |  |  | 
CC(=O)N[C@@H](CCCCN=[N+]=[N-])C(=O)NCCC(=O)N[C@@H](CC(C)C)C(=O)N[C@H](C(=O)N[C@@H](Cc1ccccc1)C(=O)N[C@]1(C)CCCCCCC=CCCC[C@@](C)(C(=O)N[C@@H](C)C(=O)N[C@@H](C)C(=O)N[C@@H](C)C(N)=O)NC(=O)[C@H](CC2CCC2)NC(=O)[C@H](CCC(N)=O)NC(=O)[C@H](C)NC(=O)[C@H](Cc2c[nH]c3ccccc23)NC(=O)[C@H](Cc2ccc(O)cc2)NC(=O)[C@H](C)NC1=O)[C@@H](C)O [MP-8965] (Ac-[Lys(N3)][βAla]LTF[R8]AYWAQ[Cba][S5]AAA-NH2; staple 6-13) |  | 0.112 | > 49.8 | 0.855 |  |  |  | 205 | > 50 | Poorly Behaved |  | P.B. | Poorly Behaved | P.B.
